5 compounds from ChEMBL document CHEMBL1201862, “PubChem BioAssay data set” (2004) can be followed below.

Test systems include HOP-92; CAKI-1; SF-268; HCT-15; A549; SF-539; MOLT-4; M14; IGROV-1; KM12; SR; U-251; A498; TK-10; OVCAR-8; ACHN; NCI-H522; SF-295; HT-29.
Common to all, as to test: inhibition of tumour cell growth, NCI panel, 48 h

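Method: 48-hour compound exposure of cells in 96-well plates, five concentrations, linear interpolation of endpoints. The concentration for 50% growth inhibition is given as GI50.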 The source made the active and inactive calls. Cut-off read from the data, not from the text of the source: active = GI50 up to about 1.1 µM and inactive = higher.

As for `COc1ccc(/C(C)=N/NC(=O)c2ccncc2)c(OC)c1`, the GI50 with HOP-92 is > 10 µM (inactive); with CAKI-1, > 10 µM (inactive); in the assay with SF-268, > 10 µM (inactive); in the assay on HCT-15, greater than 10 µM; with A549, > 10 µM (inactive); in the assay on SF-539, > 10 µM (inactive). The GI50 in the assay with MOLT-4, in the assay on M14, with IGROV-1, in the assay with KM12, in the assay with SR and in the assay on U-251 was > 10 µM (inactive) in each case. The GI50 with A498, in the assay with TK-10 and in the assay with OVCAR-8 was > 10 µM (inactive) throughout.

`CCOC(=O)C(C(=O)OCC)S(C)(=O)=O`: the GI50 in the assay on HOP-92, in the assay on A549, in the assay with SF-539, with MOLT-4, in the assay with ACHN and in the assay with M14 was > 100 µM (inactive) throughout. Also, the GI50 in the assay on IGROV-1, in the assay with KM12, in the assay on SR, in the assay with U-251, with A498 and in the assay on NCI-H522 was > 100 µM (inactive) each time. The GI50 in the assay with SF-295, in the assay on TK-10, in the assay on OVCAR-8 and with HT-29 was > 100 µM (inactive) in each case.

For `O=C1C=CC2(C=C1)O[C@H](COCc1ccccc1)[C@@H](COCc1ccccc1)O2`, the GI50 with HOP-92 was 1.01 µM (active); with CAKI-1 it was 2.24 µM (inactive); in the assay on SF-268, 1.64 µM (inactive); in the assay with HCT-15, 1.24 µM; with A549, 15.3 µM (inactive); with SF-539 it was 1.97 µM (inactive). In addition, the GI50 was 0.371 µM (active) with MOLT-4; 1.58 µM (inactive) with ACHN; 1.78 µM (inactive) in the assay on M14; 1.61 µM (inactive) in the assay on IGROV-1; 3.49 µM (inactive) in the assay with KM12; 0.251 µM (active) in the assay on SR. For the same compound, the GI50 was 1.92 µM (inactive) in the assay on U-251; 19.9 µM (inactive) in the assay on A498; 16 µM (inactive) in the assay with SF-295; 1.6 µM (inactive) in the assay with TK-10; 0.305 µM (active) in the assay with OVCAR-8; 2.34 µM (inactive) with HT-29.

Regarding `O=C1c2ccccc2C(=O)N1n1c(Cc2ccc(Cl)cc2)n[nH]c1=O`, the GI50 is > 100 µM (inactive) in the assay with HOP-92; > 100 µM (inactive) in the assay with CAKI-1; greater than 100 µM with HCT-15; > 100 µM (inactive) in the assay with A549; > 100 µM (inactive) with SF-539; > 100 µM (inactive) in the assay with MOLT-4. For the same compound, the GI50 in the assay with ACHN, in the assay on M14, in the assay with IGROV-1, with KM12, in the assay with SR and with U-251 was > 100 µM (inactive) each time. The GI50 with A498, with SF-295, in the assay with TK-10, with OVCAR-8 and in the assay on HT-29 was > 100 µM (inactive) in each case.

In the case of `N#CCOc1ccc(/C=C/C(=O)c2ccc(Cl)cc2)cc1`, the GI50 in the assay on HOP-92 is 32 µM (inactive); with SF-268, 33.9 µM (inactive); in the assay on HCT-15, 77.6 µM; in the assay with A549, 39.7 µM (inactive); in the assay with SF-539, 19.2 µM (inactive); in the assay on MOLT-4, 19.6 µM (inactive). Besides, the GI50 in the assay on ACHN was 34.8 µM (inactive); in the assay on M14, 37 µM (inactive); with IGROV-1, 22 µM (inactive); in the assay on KM12, 22.4 µM (inactive); with SR, 37.5 µM (inactive); in the assay with U-251, 25.8 µM (inactive). For the same compound, the GI50 was 20.8 µM (inactive) in the assay on A498; > 10 µM (inactive) with NCI-H522; 21.4 µM (inactive) in the assay on SF-295; 28.5 µM (inactive) in the assay on TK-10; 32.1 µM (inactive) in the assay on OVCAR-8; 50.6 µM (inactive) in the assay with HT-29.
